Patent publication US11572590B2, “Methods for evaluating tumor cell spheroids using 3D microfluidic cell culture device” (Dana-Farber Cancer Institute, Inc., priority 2017, dated 2023)
Like-named read-outs stand apart in the source and are kept apart here.

Columns and labels:
Assay in all cases: SelectScreen Kinase Profiling, single point inhibition and IC50 for off-target kinases
Assay type in all cases: biochemical
[1] = biological target: off-target kinases (Homo sapiens, UniProt O75716); conditions: STK16 (PKL12), LanthaScreen Binding
[2] = biological target: off-target kinases (Homo sapiens, UniProt P08581, M1250T); conditions: MET M1250T, mutant y, ZLYTE, ATP Km app
[3] = biological target: off-target kinases (Homo sapiens, UniProt P00533, L858R); conditions: EGFR (ErbB1) L858R (mutant), ZLYTE, ATP Km app
[4] = biological target: T1, off-target kinases (Homo sapiens, UniProt Q9UBE8); conditions: NLK, LanthaScreen Binding
T1 sequence (Q9UBE8 1-527): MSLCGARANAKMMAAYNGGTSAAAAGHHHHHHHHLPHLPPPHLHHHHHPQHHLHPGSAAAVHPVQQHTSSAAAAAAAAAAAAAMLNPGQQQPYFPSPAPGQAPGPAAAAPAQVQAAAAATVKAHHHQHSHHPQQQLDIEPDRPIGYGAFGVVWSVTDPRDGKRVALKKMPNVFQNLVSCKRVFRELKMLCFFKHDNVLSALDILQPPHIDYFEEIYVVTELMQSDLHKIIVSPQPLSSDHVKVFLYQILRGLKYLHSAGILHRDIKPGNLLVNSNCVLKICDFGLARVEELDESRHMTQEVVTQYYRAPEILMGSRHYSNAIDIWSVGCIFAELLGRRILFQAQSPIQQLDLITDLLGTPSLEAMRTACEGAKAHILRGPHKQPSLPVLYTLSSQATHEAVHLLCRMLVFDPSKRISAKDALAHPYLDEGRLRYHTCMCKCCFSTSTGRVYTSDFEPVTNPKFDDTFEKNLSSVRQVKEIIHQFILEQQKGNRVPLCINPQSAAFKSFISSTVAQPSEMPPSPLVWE

Chain of off-target kinases (Homo sapiens, UniProt O75716) (O75716 whole entry): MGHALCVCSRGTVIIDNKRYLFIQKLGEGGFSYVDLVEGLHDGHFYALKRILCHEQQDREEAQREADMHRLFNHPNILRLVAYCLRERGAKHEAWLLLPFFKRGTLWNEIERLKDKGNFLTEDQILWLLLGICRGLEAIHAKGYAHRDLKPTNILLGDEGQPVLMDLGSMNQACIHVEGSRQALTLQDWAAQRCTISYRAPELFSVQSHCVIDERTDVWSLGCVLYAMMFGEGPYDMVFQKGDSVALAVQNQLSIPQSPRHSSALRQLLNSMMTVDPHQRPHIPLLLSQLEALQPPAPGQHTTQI
Chain of off-target kinases (Homo sapiens, UniProt P08581, M1250T) (P08581 25-1390 M1250T): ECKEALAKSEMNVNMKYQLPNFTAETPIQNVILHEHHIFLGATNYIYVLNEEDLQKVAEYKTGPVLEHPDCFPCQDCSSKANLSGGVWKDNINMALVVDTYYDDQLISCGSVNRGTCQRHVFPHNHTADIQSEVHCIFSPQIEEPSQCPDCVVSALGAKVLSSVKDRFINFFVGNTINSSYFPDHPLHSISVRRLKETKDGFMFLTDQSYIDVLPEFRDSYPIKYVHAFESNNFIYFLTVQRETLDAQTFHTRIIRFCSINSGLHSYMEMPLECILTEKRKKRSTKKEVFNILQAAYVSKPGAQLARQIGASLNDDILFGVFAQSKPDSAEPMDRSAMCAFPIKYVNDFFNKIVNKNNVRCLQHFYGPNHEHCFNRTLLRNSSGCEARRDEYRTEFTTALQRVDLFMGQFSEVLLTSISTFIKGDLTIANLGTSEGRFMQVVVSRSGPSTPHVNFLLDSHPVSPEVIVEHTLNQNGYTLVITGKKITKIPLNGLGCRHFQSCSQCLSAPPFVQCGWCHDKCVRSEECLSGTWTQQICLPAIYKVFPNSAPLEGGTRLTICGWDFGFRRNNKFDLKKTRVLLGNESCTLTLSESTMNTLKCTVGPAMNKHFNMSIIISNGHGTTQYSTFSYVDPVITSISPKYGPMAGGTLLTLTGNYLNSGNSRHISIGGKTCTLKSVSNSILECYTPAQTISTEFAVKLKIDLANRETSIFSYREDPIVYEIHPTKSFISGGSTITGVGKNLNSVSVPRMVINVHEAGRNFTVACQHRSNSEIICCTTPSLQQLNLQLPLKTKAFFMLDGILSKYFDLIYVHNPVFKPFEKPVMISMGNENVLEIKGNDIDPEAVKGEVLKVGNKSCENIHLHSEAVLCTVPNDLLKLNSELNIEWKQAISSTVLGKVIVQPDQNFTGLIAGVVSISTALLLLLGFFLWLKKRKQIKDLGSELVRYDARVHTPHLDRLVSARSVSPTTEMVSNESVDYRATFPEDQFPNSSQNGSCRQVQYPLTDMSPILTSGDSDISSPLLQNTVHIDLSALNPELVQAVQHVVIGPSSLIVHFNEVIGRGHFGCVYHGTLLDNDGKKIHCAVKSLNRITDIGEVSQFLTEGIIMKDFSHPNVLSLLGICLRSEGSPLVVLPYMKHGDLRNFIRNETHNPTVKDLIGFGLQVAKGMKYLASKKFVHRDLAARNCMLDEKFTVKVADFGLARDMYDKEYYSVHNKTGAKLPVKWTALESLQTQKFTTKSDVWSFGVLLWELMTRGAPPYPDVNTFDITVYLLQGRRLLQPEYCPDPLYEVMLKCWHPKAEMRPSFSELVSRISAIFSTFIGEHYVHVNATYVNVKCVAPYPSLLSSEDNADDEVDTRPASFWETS
Chain of off-target kinases (Homo sapiens, UniProt P00533, L858R) (P00533 25-1210 L858R): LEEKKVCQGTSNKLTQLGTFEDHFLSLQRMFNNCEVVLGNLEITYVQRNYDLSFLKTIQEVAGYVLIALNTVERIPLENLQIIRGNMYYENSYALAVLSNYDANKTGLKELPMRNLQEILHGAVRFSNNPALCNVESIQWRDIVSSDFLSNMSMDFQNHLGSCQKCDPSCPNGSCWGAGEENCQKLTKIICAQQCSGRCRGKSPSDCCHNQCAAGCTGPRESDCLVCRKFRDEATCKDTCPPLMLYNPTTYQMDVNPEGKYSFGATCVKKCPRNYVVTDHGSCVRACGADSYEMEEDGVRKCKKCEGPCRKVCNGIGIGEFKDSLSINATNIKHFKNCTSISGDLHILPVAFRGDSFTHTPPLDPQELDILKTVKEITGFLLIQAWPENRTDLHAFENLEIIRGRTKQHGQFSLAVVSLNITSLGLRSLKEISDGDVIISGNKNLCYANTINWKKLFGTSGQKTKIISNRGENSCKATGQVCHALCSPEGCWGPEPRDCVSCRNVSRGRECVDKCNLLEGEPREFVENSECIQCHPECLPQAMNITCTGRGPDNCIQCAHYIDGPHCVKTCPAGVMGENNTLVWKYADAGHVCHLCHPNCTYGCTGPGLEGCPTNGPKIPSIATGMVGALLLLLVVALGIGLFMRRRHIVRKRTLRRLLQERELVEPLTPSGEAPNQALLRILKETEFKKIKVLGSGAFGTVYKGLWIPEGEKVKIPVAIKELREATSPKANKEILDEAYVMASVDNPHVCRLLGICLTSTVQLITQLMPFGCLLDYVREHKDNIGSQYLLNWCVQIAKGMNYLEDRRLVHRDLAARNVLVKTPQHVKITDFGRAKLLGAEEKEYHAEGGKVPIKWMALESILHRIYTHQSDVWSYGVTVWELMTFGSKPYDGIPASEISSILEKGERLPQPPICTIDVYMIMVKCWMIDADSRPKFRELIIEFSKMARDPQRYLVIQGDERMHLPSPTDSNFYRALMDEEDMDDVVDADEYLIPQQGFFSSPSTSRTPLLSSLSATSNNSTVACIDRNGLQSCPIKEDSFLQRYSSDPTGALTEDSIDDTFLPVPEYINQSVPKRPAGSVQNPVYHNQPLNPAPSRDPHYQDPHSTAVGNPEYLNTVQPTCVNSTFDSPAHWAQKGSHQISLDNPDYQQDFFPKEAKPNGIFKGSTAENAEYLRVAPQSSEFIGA

N#Cc1cc(-c2ncnc(Nc3ccc(N4CCN(C5COC5)CC4)cc3)n2)ccc1OC1CCOCC1 [Compound 1, 5-(4-((4-(4-(oxetan-3-yl)piperazin-1-yl)phenyl)amino)-1,3,5-triazin-2-yl)-2-((tetrahydro-2H-pyran-4-yl)oxy)benzonitrile]
inhibition ([1]; read-out: % Inhibition 1): 95% | inhibition ([1]; read-out: % Inhibition 2): 93% | inhibition ([1]; read-out: % Inhibition Avg): 94% | inhibition ([2]; read-out: % Inhibition 1): 26% | inhibition ([2]; read-out: % Inhibition 2): 34% | inhibition ([2]; read-out: % Inhibition Avg): 30% | inhibition ([3]; read-out: % Inhibition 1): 6% | inhibition ([3]; read-out: % Inhibition 2): 3% | inhibition ([3]; read-out: % Inhibition Avg): 4% | inhibition ([4]; read-out: % Inhibition 1): 26% | inhibition ([4]; read-out: % Inhibition 2): 29% | inhibition ([4]; read-out: % Inhibition Avg): 28%
